In PubChem BioAssay AID328 (DTP/NCI, 2004) one finds T/C data, which are given here for 14 compounds.

The structures appear in SMILES notation. Where “and” joins values, the source holds several entries; their conditions need not be identical. Equal entries are not always repeated. Toxic doses and inconclusive results are not listed.

In the assay the test system is BDF1 mice, P388 leukemia ip, median survival T/C. The assay is described as follows: NCI In Vivo Anticancer Drug Screen. Data for tumor model P388 Leukemia (intraperitoneal) in B6D2F1 (BDF1) mice. The note with it: endpoint: median survival time, higher = longer survival. In short, it runs like this:
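Each value expresses how treatment altered survival: treated-mouse outcome over vehicle-mouse outcome, both groups bearing the transplanted tumour.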

The mark [1] stands for this setting: dose: 25.0 mg/kg/injection, schedule: Q01DX009 (ip), vehicle: Klucel (hydroxypropylcellulose) (HPC).
Setting [2] is: dose: 50.0 mg/kg/injection, schedule: Q01DX009 (ip), vehicle: saline with Tween-80.
Setting [3] is: dose: 25.0 mg/kg/injection, schedule: Q01DX009 (ip), vehicle: saline with Tween-80.
Where [4] appears, read: dose: 25.0 mg/kg/injection, schedule: Q01DX009 (ip), vehicle: saline.
[5] abbreviates: dose: 50.0 mg/kg/injection, schedule: Q01DX009 (ip), vehicle: saline.
[6] abbreviates: dose: 100.0 mg/kg/injection, schedule: Q01DX009 (ip), vehicle: saline.
Where [7] appears, read: dose: 12.5 mg/kg/injection, schedule: Q01DX009 (ip), vehicle: saline.

Regarding `O=C(CC/[N+]([O-])=C/c1ccccc1)OCc1ccccc1`, the T/C was 92 % of control (dose: 12.5 mg/kg/injection, schedule: Q01DX009 (ip), vehicle: other); 97 % of control (dose: 25.0 mg/kg/injection, schedule: Q01DX009 (ip), vehicle: other); 103 % of control (dose: 50.0 mg/kg/injection, schedule: Q01DX009 (ip), vehicle: other); 97 % of control (dose: 100.0 mg/kg/injection, schedule: Q01DX009 (ip), vehicle: other); 92 % of control (dose: 200.0 mg/kg/injection, schedule: Q01DX009 (ip), vehicle: other).

For the compound `O=C(O)CNC1CSSC1`, the T/C runs as follows: (dose: 1.56 mg/kg/injection, schedule: Q04DX003 (ip), vehicle: water) 97 % of control; (dose: 3.12 mg/kg/injection, schedule: Q01DX009 (ip), vehicle: water) 111 % of control; (dose: 3.12 mg/kg/injection, schedule: Q04DX003 (ip), vehicle: water) 88 % of control; (dose: 6.25 mg/kg/injection, schedule: Q01DX009 (ip), vehicle: water) 101 % of control; (dose: 6.25 mg/kg/injection, schedule: Q04DX003 (ip), vehicle: water) 93 % of control; (dose: 12.5 mg/kg/injection, schedule: Q04DX003 (ip), vehicle: water) 88 % of control. For the same compound, the T/C runs as follows: (dose: 25.0 mg/kg/injection, schedule: Q01DX009 (ip), vehicle: water) 109 % of control; (dose: 25.0 mg/kg/injection, schedule: Q04DX003 (ip), vehicle: water) 94 % of control; (dose: 50.0 mg/kg/injection, schedule: Q01DX009 (ip), vehicle: water) 108 % of control; (dose: 50.0 mg/kg/injection, schedule: Q04DX003 (ip), vehicle: water) 86 % of control; (dose: 100.0 mg/kg/injection, schedule: Q01DX009 (ip), vehicle: water) 91 % of control.

For `O.[Cu].[Cu]`, the T/C (dose: 6.25 mg/kg/injection, schedule: Q01DX009 (ip), vehicle: Klucel (hydroxypropylcellulose) (HPC)) is 90 % of control; the T/C (dose: 6.25 mg/kg/injection, schedule: Q04DX003 (ip), vehicle: Klucel (hydroxypropylcellulose) (HPC)) was 90 % of control; the T/C (dose: 12.5 mg/kg/injection, schedule: Q01DX009 (ip), vehicle: Klucel (hydroxypropylcellulose) (HPC)) is 110 % of control; the T/C (dose: 12.5 mg/kg/injection, schedule: Q04DX003 (ip), vehicle: Klucel (hydroxypropylcellulose) (HPC)) was 90 % of control; the T/C under setting [1] is 95 % of control; the T/C (dose: 25.0 mg/kg/injection, schedule: Q04DX003 (ip), vehicle: Klucel (hydroxypropylcellulose) (HPC)) is 118 % of control.

Regarding `CN=S(=O)(OCCOCCOS(=O)(=NC)c1ccc(C)cc1)c1ccc(C)cc1` (stereo not given), the T/C reads like this: under setting [2], 111 % of control; (dose: 100.0 mg/kg/injection, schedule: Q01DX009 (ip), vehicle: saline with Tween-80) 108 % of control; (dose: 200.0 mg/kg/injection, schedule: Q01DX009 (ip), vehicle: saline with Tween-80) 114 % of control.

For `CC(C)CNC(=S)/N=C1\CCN(c2ccccc2)N1`, the T/C is 118 % of control (dose: 4.5 mg/kg/injection, schedule: Q01DX009 (ip), vehicle: saline with Tween-80); 86 % of control (dose: 9.0 mg/kg/injection, schedule: Q01DX009 (ip), vehicle: saline with Tween-80); 92 % of control (dose: 18.0 mg/kg/injection, schedule: Q01DX009 (ip), vehicle: saline with Tween-80).

Consider `CS(=O)(=O)OCCCCOS(C)(=O)=O`, for which the T/C (dose: 6.25 mg/kg/injection, schedule: Q01DX010 (ip), vehicle: saline) was 100 % of control and 119 % of control; the T/C (dose: 12.5 mg/kg/injection, schedule: Q01DX009 (ip), vehicle: saline with Tween-80) was 113 % of control; the T/C (dose: 12.5 mg/kg/injection, schedule: Q01DX010 (ip), vehicle: saline) was 122 % of control; the T/C (dose: 20.0 mg/kg/injection, schedule: Q01DX010 (ip), vehicle: other) is 120 % of control; the T/C under setting [3] was 104 % of control; the T/C (dose: 40.0 mg/kg/injection, schedule: Q01DX010 (ip), vehicle: other) is 120 % of control. For the same compound, the T/C by setting is: under setting [2], 104 % of control; (dose: 60.0 mg/kg/injection, schedule: Q01DX010 (ip), vehicle: other) 120 % of control.

On to `Cc1[nH][nH]c(=O)c1N=O`, for which the T/C (dose: 18.75 mg/kg/injection, schedule: Q01DX009 (ip), vehicle: saline with Tween-80) was 92 % of control; the T/C (dose: 37.5 mg/kg/injection, schedule: Q01DX009 (ip), vehicle: saline with Tween-80) is 99 % of control; the T/C (dose: 75.0 mg/kg/injection, schedule: Q01DX009 (ip), vehicle: saline with Tween-80) was 99 % of control.

As to `CN(C)C(=S)NN`, the T/C is 90 % of control (dose: 0.25 mg/kg/injection, schedule: Q01DX009 (ip), vehicle: saline with Tween-80); 90 % of control (dose: 0.5 mg/kg/injection, schedule: Q01DX009 (ip), vehicle: saline with Tween-80); 100 % of control (dose: 0.78 mg/kg/injection, schedule: Q04DX003 (ip), vehicle: saline with Tween-80); 95 % of control (dose: 1.0 mg/kg/injection, schedule: Q01DX009 (ip), vehicle: saline with Tween-80); 105 % of control (dose: 1.56 mg/kg/injection, schedule: Q04DX003 (ip), vehicle: saline with Tween-80); 95 % of control and 105 % of control (dose: 3.12 mg/kg/injection, schedule: Q04DX003 (ip), vehicle: saline with Tween-80).

Consider `CCCC(=O)C(CC)C(O)(C(F)(F)F)C(F)(F)F` (stereo not given), for which the T/C runs as follows: (dose: 50.0 mg/kg/injection, schedule: Q04DX003 (ip), vehicle: saline with Tween-80) 100 % of control; (dose: 100.0 mg/kg/injection, schedule: Q04DX003 (ip), vehicle: saline with Tween-80) 104 % of control; (dose: 200.0 mg/kg/injection, schedule: Q04DX003 (ip), vehicle: saline with Tween-80) 118 % of control.

`NC(=O)C(Br)CBr` (stereo not given): the T/C was 103 % of control (dose: 1.5 mg/kg/injection, schedule: Q01DX009 (ip), vehicle: saline with Tween-80); 98 % of control (dose: 3.0 mg/kg/injection, schedule: Q01DX009 (ip), vehicle: saline with Tween-80); 107 % of control and 115 % of control (dose: 12.0 mg/kg/injection, schedule: Q01DX009 (ip), vehicle: saline with Tween-80); 114 % of control under setting [1]; 105 % of control under setting [3]; 99 % of control under setting [4]. Also, the T/C is 94 % of control (dose: 50.0 mg/kg/injection, schedule: Q01DX009 (ip), vehicle: Klucel (hydroxypropylcellulose) (HPC)); 99 % of control under setting [5]; 114 % of control (dose: 100.0 mg/kg/injection, schedule: Q01DX009 (ip), vehicle: Klucel (hydroxypropylcellulose) (HPC)); 92 % of control under setting [6].

Regarding `CNC(C)Cc1ccccc1OC` (stereo not given), the T/C is 89 % of control under setting [7]; 89 % of control under setting [4]; 88 % of control (dose: 25.0 mg/kg/injection, schedule: Q04DX003 (ip), vehicle: saline); 92 % of control under setting [5]; 92 % of control (dose: 50.0 mg/kg/injection, schedule: Q04DX003 (ip), vehicle: saline).

Consider `NC(=O)c1ncc(-c2ccccc2)[nH]c1=O`, for which the T/C under setting [5] is 104 % of control; the T/C under setting [6] was 100 % of control; the T/C (dose: 200.0 mg/kg/injection, schedule: Q01DX009 (ip), vehicle: saline) was 109 % of control.

Consider `C1=CC2c3ccccc3C1c1ccccc12`, for which the T/C reads like this: (dose: 100.0 mg/kg/injection, schedule: Q01DX007 (sc), vehicle: olive oil, sesame oil, peanut oil) 91 % of control; (dose: 100.0 mg/kg/injection, schedule: Q04DX003 (sc), vehicle: olive oil, sesame oil, peanut oil) 100 % of control; (dose: 200.0 mg/kg/injection, schedule: Q01DX007 (sc), vehicle: olive oil, sesame oil, peanut oil) 104 % of control; (dose: 200.0 mg/kg/injection, schedule: Q04DX003 (sc), vehicle: olive oil, sesame oil, peanut oil) 90 % of control; (dose: 400.0 mg/kg/injection, schedule: Q01DX007 (sc), vehicle: olive oil, sesame oil, peanut oil) 95 % of control; (dose: 400.0 mg/kg/injection, schedule: Q04DX003 (sc), vehicle: olive oil, sesame oil, peanut oil) 110 % of control.

On to `CO[C@@]12[C@H](COC(N)=O)C3=C(C(=O)C(C)=C(N)C3=O)N1C[C@H]1[C@@H]2N1C(=O)[C@@H]1N2C(=O)[C@@H](NC(=O)Cc3ccccc3)[C@H]2SC1(C)C`, for which the T/C under setting [7] was 151 % of control, the T/C under setting [4] was 160 % of control and the T/C under setting [5] is 210 % of control.
